Source: patent US11293019B2, “Chimeric genome engineering molecules and methods” (GFLAS Life Sciences, Inc., priority 2017, dated 2022)
Where two headings read alike, the source gives them in different places.

What was measured:
[1] = system: PCR dsDNA product; experiment: SpCas9 activity with 1 mM ZnSO4 / Mg2+ deficiency at different pH; type: biochemical; details: 1 mM ZnSO4, range of pH values
Description: For DNA (50 ng) NbFTa13_4 PCR product, 3 μl (150 ng) was used; for SpCas9-BPNLS (3.3 μg) 1/10 dilution (333 ng), 1.5 μl (0.5 μg) was used; for gRNA (1.5 μg) (NbFTa13_3/4-2), 1/10 dilution (150 ng), 3.5 μg (500 ng) was used; for pH (+1 mM ZnSO4, 2× cutsmart), 10 μl was used; for DW, to 20 μl was used.
For PCR dsDNA product, 150 ng was used; for SpCas9:BPNLS, 1 μg was used; for gRNA, 500 ng was used; for pH titration (100 mM NaCal, 50 mM Tris-HCl+1 mM ZnSO4), 10 ul was used, for DW, up to 20 μl was used.
Activity of SpCas9 and SpCas9-mungbean nuclease chimeric polypeptide was tested in the presence of 1 mM ZnSO4 at a range of pHs.

[2] = system: PCR product (901 bp SpyCas9; 1,431 bp FnCpf1); experiment: Inactivation of SpyCas9 and FnCpf1 by stop solution / 1 mM ZnSO4, in vitro cleavage time course; type: biochemical
[3] = system: human DHCR7; experiment: Genome editing after zinc sulfate treatment, HEK293, T7E1 assay; type: cell-based; details: for % indels: +RNP
Description: (§1) The concentrations of 80 mM 160 mM of zinc sulfate were treated in HEK293 with Cas9 variants. HEK293 cells were harvested at 12 h, 24 h, and 48 h after zinc sulfate treatment. In terms of RNP treatment, HEK293 cells were harvested at 24 h, 36 h, and 60 h.
as §1
Cell culture. HEK 293 cells were maintained in DMEM media with 10% Fetal bovine serum FBS and P/S, at 37° C. in CO2 incubator. 150,000 cells were transferred to a 24 well plate in […] of the growth medium a day before transfection.
Transfection. For Cas9 variants transfection to the cells, purified each Cas9 variant protein was added to up to […] of Opti-MEM serum reduced medium in a micro tube, followed by addition of 120 ng guide RNA. The molar ratio of the guide RNA to Cas9 protein was kept nearly at 1.2:1 ratio(1). The mixture, then, mixed well by gentle tapping and incubated for 10 min at RT. In a separate tube. […] of Lipofectamin 3000 transfection reagent was added to […] of Opti-MEM and […] of the diluted transfection reagent was added to the guide RNA and Cas9 protein mixture, followed by incubation for 15 min at RT and […] mixture was added to the cells.
Genomic DNA extraction. […] Briefly cells were washed with PBS once and treated with T.E., followed by incubation at 37, for 5 min. 1.2 ml of growth media were added to cells to harvest cell and then, spin downed at RT, 250×g, for 5 min.
Amplification of genomic loci of human DHCR7. For amplification of genomic loci of human DHCR7, two different PCR primer pairs were used. […] Genomic DNA was amplified using specific primers and cleaned up using Wizard® SV gel and PCR clean-Up system. 200 ng PCR cleaned-up amplified DNA was added in a PCR-tube, followed by addition of […] of NEB buffer 2 with up to 9 ml of distilled water (D/W). The mixture was then re-annealed in a PCR machine using following condition: 98° C. for 5 min for denaturation; cooling down to 85° C. at −2° C./sec, in turn, to 25° C. at −0.1/sec and kept at 4° C., in order to prevent denaturation of heteroduplex formation of the amplified DNA. […] of T7E1 endonuclease was added to the mixture and incubated at 37° C. for 60 min.
Image Analysis. For analysis of gene modification, 2% gel was used image was obtained with and Alphaimager 2200 image analysis software was used for analysis. % indel was computed with following equation: 1−((1-fraction cleaved) ½)(2).

[4] = system: HEK293 cells and plant protoplasts; experiment: Summary of knock-out / knock-in performance (HEK293 cells and plant protoplasts); type: cell-based; details: in vitro and in vivo HEK293 cells
Excerpt: The apparent rates of mutations after the action of CRISPR genome editing tools are relatively low in vivo due to outperformance of error-free repair mechanisms. To enhance both the rate of indel mutation and HR recombination, genome editing tools were constructed by translational fusion of DNA modifying enzymes (DME), DNA binding protein (DBP), or terminal deoxyribonucleotidyl transferase (TdT) at either upstream or downstream of CRISPR genome editing enzymes. In one embodiment, a variant irreversibly deleted the DNA at the CRISPR enzyme-dependent double strand break sites in 5′->3′ direction, and the resulting modified ends with 3′-OH overhang can better serve HR repairs in presence of repair template. Disclosed herein are constructs that display functional enhancement of the CRISPR-Cas enzymes. […] Fifth, off-target effects in Cas9-RecJ embodied the similar efficiency to Cas9 off-targeting in whole genome sequencing and targeted deep sequencing. […] FIG. 74-FIG. 125 show said new genome editing fusion constructs, knock-out and knock-in efficiency and percent change in efficiency over a control.
The apparent rates of mutations after the action of CRISPR genome editing tools are relatively low in vivo due to outperformance of error-free repair mechanisms. […]

[5] = system: HEK293 cells
Description: 1.0×10^5 cells were in the 24 well plate.
Cell culture. HEK 293 cells were maintained in DMEM media with 10% Fetal bovine serum FBS and P/S, at 37° C. in CO2 incubator. 150,000 cells were transferred to a 24 well plate in 50 ml of the growth medium a day before transfection.

For `O=S(=O)([O-])[O-].[Zn+2]` [ZnSO4, zinc sulfate], the “abolished Cas9 activity” value [1] was “up to 90%”, the “uncut dsDNAs not digested any more after ZnSO4 treatment” value [2] was 65% and the “% indels” value ([3]; 80 ZnSO4 (mM) at 12 h, harvest 24 h) was 2.9%. For the same compound, the “% indels” value ([3]; 80 ZnSO4 (mM) at 12 h, harvest 60 h) was 5.4%, the “% indels” value ([3]; 160 ZnSO4 (mM) at 12 h, harvest 24 h) was 1.8% and the “% indels” value ([3]; 160 ZnSO4 (mM) at 12 h, harvest 36 h) was 2.7%. For the same compound, the “% indels” value ([3]; 160 ZnSO4 (mM) at 12 h, harvest 60 h) was 5.8%, the “modified dsDNA detected via T7E1 assay” value ([3]; 48 h hpt with RNP, 80 μM ZnSO4 at 24 hpt, direct) was 12.62% and the “modified dsDNA detected via T7E1 assay” value ([3]; 48 h hpt with RNP, 80 μM ZnSO4 at 24 hpt, media exchange) was 9.86%. For the same compound, the “modified dsDNA detected via T7E1 assay” value ([3]; 48 h hpt with RNP, 160 μM ZnSO4 at 24 hpt, direct) was 3.68%, the “modified dsDNA detected via T7E1 assay” value ([3]; 48 h hpt with RNP, 160 μM ZnSO4 at 24 hpt, media exchange) was 4.96% and the “modified dsDNA detected via T7E1 assay” value ([3]; 72 h hpt with RNP, 80 μM ZnSO4 at 24 hpt, direct) was 2.8%. The “modified dsDNA detected via T7E1 assay” value ([3]; 72 h hpt with RNP, 80 μM ZnSO4 at 24 hpt, media exchange) was 9.32%, the “modified dsDNA detected via T7E1 assay” value ([3]; 72 h hpt with RNP, 160 μM ZnSO4 at 24 hpt, direct) was 1.87% and the “modified dsDNA detected via T7E1 assay” value ([3]; 72 h hpt with RNP, 160 μM ZnSO4 at 24 hpt, media exchange) was 1.41%. For the same compound, the “genome editing efficacy after zinc sulfate treatment” value ([3]; HEK293 with Cas9 variants) was “reduced”, the “quenching of Cas9 activity” value [4] was “effectively quenched Cas9 activity” and the HEK293 cell survival ([5]; 0 to 120 mM zinc sulfate) was “allowed HEK293 cell to survive”. The HEK293 cell survival ([5]; 160 mM and 200 mM zinc sulfate) was “did not allow HEK293 live well without toxicity effect”.
